Patent EP3300730A1, “THE MEDICAL USE OF 5,7-DIHYDROXY-3-(4-HYDROXYPHENYL)-4H-1-BENZOPIRAN-4-ONE IN THE THERAPY OF HUNTINGTON DISEASE AND PHARMACEUTICALLY ACCEPTABLE FORM OF THE DRUG” (Uniwersytet Gdanski, priority 2016, dated 2018)

Tests used:
acidic organelles = assay: LysoTracker Red staining of acidic organelles (lysosomes), ImageJ analysis; assay type: cell-based, human; settings: 96 h, HEK293 transfected with pEGFP-Q74, LysoTracker Red (Fig. 5)
Source text: • Fig. 1. […] Error bars indicate standard deviation. […] Error bars indicate standard deviation. […] Error bars indicate standard deviation.

[1] = system: human embryonic kidney cells (HEK293) transfected with plasmid pEGFP-Q74; assay: MTT viability test of cells transfected with pEGFP-Q74; assay type: cell-based; settings: genistein 30, 60 and 100 µM, 48 h, MTT test (Fig. 3)
Procedure: (§1) • Fig. 1. Number and average size of huntingtin aggregates in human embryonic kidney cells transfected with plasmid pEGFP-Q74 (bearing the 1st exon of the HTT gene with 74 CAG repeats), treated with genistein (30, 60 and 100 µM) or DMSO (control cells), in a volume equal to that of genistein, for 48 h. Error bars indicate standard deviation. Statistical analysis was performed with the t-Student test. The differences were considered significant at p<0.05. • Fig. 2. Relative level of mutated huntingtin in human embryonic kidney cells transfected with plasmid pEGFP-Q74 (bearing the 1st exon of the HTT gene with 74 CAG repeats), treated with genistein (30, 60 and 100 µM) or DMSO (control cells), in a volume equal to that of genistein, for 96 h. Actin was used as an internal control. • Fig. 3. […] Intensity of bands was estimated using the Quantity One software. • Fig. 5. Number (calculated per one cell) and volume of acidic organelles in human embryonic kidney cells transfected with plasmid pEGFP-Q74 (bearing the 1st exon of the HTT gene with 74 CAG repeats), treated with genistein (30, 60 and 100 µM) or DMSO (control cells), in a volume equal to that of genistein, for 96 h. […] The co-localization Pearson factor was calculated by using the ImageJ software. […]

[2] = system: aggregates of mutated huntingtin with lysosomes; assay: Co-localization of mutated huntingtin aggregates with lysosomes (fluorescence microscopy, Pearson coefficient); assay type: cell-based, human; settings: 100 µM genistein; 96 h; HEK293 transfected with pEGFP-Q74; vs DMSO control (Fig. 6)
Procedure: as §1, with “2.” for “2. Relative level of mutated huntingtin in human embryonic kidney cells transfected with plasmid pEGFP-Q74 (bearing the 1st exon of the HTT gene with 74 CAG repeats), treated with genistein (30, 60 and 100 µM) or DMSO (control cells), in a volume equal to that of genistein, for 96 h. Actin was used as an internal control. • Fig. 3.”
In order to test whether mutant huntingtin is transported into lysosomes for degradation, co-localization of aggregates of mutated huntingtin with lysosomes was assessed using a fluorescent microscope (Fig. 6). […]

huntingtin aggregates = assay: Fluorescence microscopy of huntingtin aggregates in transfected cells; assay type: cell-based, human; settings: HEK293 transfected with pEGFP-Q74; genistein 30, 60 and 100 µM; 48 h; vs DMSO control (Fig. 1)
Procedure: as §1

mutated huntingtin [3] = assay: Western blotting of the mutated huntingtin level; assay type: cell-based, human; settings: HEK293 transfected with pEGFP-Q74; genistein 30, 60 and 100 µM; 96 h; actin internal control (Fig. 2)
Procedure: as §1

mutated huntingtin [4] = assay: Western blotting of mutated huntingtin with lysosomal function inhibited by chloroquine; assay type: cell-based, human; settings: in the presence of 10 µM chloroquine; genistein 30, 60 and 100 µM; 96 h; HEK293 transfected with pEGFP-Q74 (Fig. 7)
Procedure: as §1

LC3-II protein = assay: Immunodetection (Western blotting) of the autophagy marker LC3-II; assay type: cell-based, human; settings: 96 h
Procedure: as §1

**Q.** With `O=c1c(-c2ccc(O)cc2)coc2cc(O)cc(O)c12` [genistein, 5,7-dihydroxy-3-(4-hydroxyphenyl)-4H-1-benzopiran-4-one] as the molecule, how does the “number of acid organelles” value (acidic organelles; 30 µM genistein) read?
**A.** increase is visible

**Q.** What about the “volume of acid organelles” value (acidic organelles; 30 µM genistein) of the same molecule?
**A.** increase in the volume of acid organelles was evident

**Q.** What about the “number of acid organelles” value (acidic organelles; 100 µM genistein) of the same molecule?
**A.** difference relative to the control is significant

**Q.** And the viability of cells [1]?
**A.** increase in viability

**Q.** What about the “co-localization of aggregates of mutated huntingtin with lysosomes” value [2] of the same molecule?
**A.** increased significantly

**Q.** What about the “number of mutant huntingtin aggregates in cells” value (huntingtin aggregates) of the same molecule?
**A.** decrease in both size and number

**Q.** And the “size of mutant huntingtin aggregates in cells” value (huntingtin aggregates)?
**A.** decrease in both size and number

**Q.** And the “level of mutant huntingtin in cells” value (mutated huntingtin [3])?
**A.** significantly reduces

**Q.** What about the “level of mutated huntingtin” value (mutated huntingtin [4]) of the same molecule?
**A.** did not change significantly

**Q.** What about the LC3-II protein amount (LC3-II protein; HEK293 transfected with pEGFP-Q74, genistein 30, 60 and 100 µM, vs DMSO control (Fig. 4)) of the same molecule?
**A.** genistein-concentration-dependent increase

**Q.** What about the fold induction at 100 µM (LC3-II protein; Homo sapiens, highest genistein concentration (100 µM), HEK293 transfected with pEGFP-Q74 (Fig. 4), read-out: LC3-II protein level relative to control experiment) of the same molecule?
**A.** ~4
